This is an account of results in patent US20020165216A1, “Cobalt-porphyrin complexes and use thereof as an anti-obesity agent” (MitoKor, priority 2000, published 2002).

The nature of the assay: Oxygen consumption catalyzed by Co-P in the presence of ascorbate/TMPD (Clark oxygen electrode). The note with it: 2 mM ascorbate, 40 μM TMPD; for Relative Rate (oxygen consumption), effect of ligand, R5, A and n moiety: Table 4; for Relative Rate (oxygen consumption), effect of ligand, R5 and A moiety: Table 3. On the procedure: (Co-MP). Such activity can be readily determined by, for example, the assay disclosed in Example 16. In that assay, redox activity is measured by oxygen consumption catalyzed by a Co-P test compound in the presence of ascorbate and TMPD.
Ten mM stock solutions of a Co-P of this invention (i.e., test compound) were prepared using ethanol as solvent. KCl media consists of 125 mM KCl, 2 mM K2HPO4, 20 mM HEPES, pH 7.0. Oxygen consumption measurements were carried out using a Clark type oxygen electrode (Rank Brothers Ltd., Cambridge, UK) and assay solutions were magnetically stirred during the course of the experiments. To 500 μl of assay solution (KCl media supplemented with 2 mM sodium ascorbate and 40 μM […] (TMPD)) is added 2 μl of a stock solution of test compound (40 μM final concentration) and the oxygen consumption rate is followed for 2-4 min. Subsequently, a 5 μl aliquot of a freshly made catalase solution (100 mg/ml solution in KCl media) is added to determine if H2O2 is generated via redox cycling of the test compound.
Initial rates are calculated from oxygen consumption slopes and rate of a solvent control is subtracted. […] An aliquot of a 10 mM stock solution of Co-MP (final concentration of 40 μM) was added to assay buffer containing 2 mM of ascorbate and 40 μM of TMPD. […] Addition of catalase results in conversion of H2O2 present in the assay solution to O2 and H2O.
Stock solutions of the test compound were at 10 mM. Aliquots of the stock solutions were added to 500 μl of assay buffer containing 2 mM of ascorbate and 40 μM of TMPD.
Representative Co-P compounds of this invention were prepared by the procedures disclosed above, and assayed by the procedure of Example 16 to measure oxygen consumption catalyzed by the test compound in the presence of ascorbate/TMPD. […] The above procedure was then repeated for other representative Co-P compounds of this invention, but utilizing different ligands and/or R groups.

The mark [1] stands for this setting: 40 μM test compound, normalized to chloride salt of Co-MP = 1.

As to “Cobalt (III) Mesoporphyrin IX Diacetate [(7-1)]”, under setting [1], the “Relative Rate (oxygen consumption), effect of ligand, R5, A and n moiety” value (“Relative Rate … A and n moiety” below) was 0.07.
“Cobalt (III) Mesoporphyrin IX bisglycinate monosodium salt dibutyl ester [(1-2)]”: the “Relative Rate (oxygen consumption), effect of ligand, R5 and A moiety” value (shortened to “Relative Rate … R5 and A moiety”) under setting [1] is “(not detected)”.
Consider Cobalt (III) Mesioirogyrin IX [(11-1)], for which, under setting [1], the “Relative Rate … A and n moiety” value stood at 0.0005.
“Cobalt (III) Mesoporphyrin IX bisglycinate monosodium salt, diethyl ester [(1-5)]”: the “Relative Rate … R5 and A moiety” value under setting [1] is reported as 0.08 ± 0.01.
Take “Cobalt (III) Mesoporphyrin IX Dibenzyl Ester [(8-1)]”: the “Relative Rate … A and n moiety” value under setting [1] is given as 0.045.
Still for that read-out and setting: the same measure for “Cobalt (III) Mesoporphyrin IX Diol [(6-1)]”: 0.56.
With `c1c[nH]cn1` [imidazole], the “O2 consumption / redox cycling (in words)” value (cell free ascorbate/TMPD system) is “blocks generation of reactive oxygen species”.
With “Cobalt (III) Mesoporphyrin IX Dimethyl Ester [(5-1)]”, the “Relative Rate (oxygen consumption), effect of ligand and R5 moiety” value (Table 2, 40 μM test compound, normalized to chloride salt of Co-MP = 1) is reported as 0.05-0.07.
Turning to “Cobalt (III) Mesoporphyrin IX bisglycinate monosodium salt, diisoamyl ester [(1-4)]”, the “Relative Rate … R5 and A moiety” value under setting [1] is listed as “(not detected)”.
On the same count and under the same terms, as for “Cobalt (III) Mesoporphyrin IX bisglycinate monosodium salt, diisobutyl ester [(1-3)]”, the entry is “(not detected)”.
Regarding “Cobalt (III) Mesoporphyrin IX bisglycinate monosodium salt, dimethyl ester [(1-1)]”, under setting [1], the “Relative Rate … R5 and A moiety” value turned out to be 0.21 ± 0.04.
“Cobalt (III) Mesoporphyrin IX Dithiobenzyl Ether [(10-1)]”: the “Relative Rate … A and n moiety” value under setting [1] came out at 0.021.
